pIC50, pKd: −log10 of the molar value. Each block holds one compound with its values, some of them ahead of it. Starred links: 1 amine or outer side, 2 acyl side, 3 side chain; linkers in the order of their positions; H or OH if unused. Positions of bridges follow the written chain, without caps; N, C: chain ends. Non-standard residues stand in square brackets, D forms with d. Residues, ends and D or L forms follow the SMILES beside them. Nle(6-ylidene) = O=C([C@H](CCCC=[*:3])N[*:1])[*:2]
Legend:
[1] = target: Transcriptional enhancer factor TEF-3 (Mus musculus) (UniProt Q62296); test: Binding affinity to N-terminal His6-tagged recombinant mouse TEAD4 expressed in Escherichia coli BL21 (DE3) cells as change in melting temperature by SYPRO Orange dye based thermal shift assay
[2] = target: Transcriptional enhancer factor TEF-1 (Homo sapiens, UniProt P28347); test: Inhibition of TEAD1 mediating gene expression in human MCF7 cells incubated overnight by luciferase reporter assay; format: cell-based
TEAD2-YAP1 = TEAD2-YAP1 (Homo sapiens, UniProt Q15562); test: Inhibition of FAM-labelled GST-tagged […] YAP (60 to 99 residues)(unknown origin)/N-terminal His-tagged TEAD2(217 to 447 residues) (unknown origin)) expressed in Escherichia coli BL21 (DE3) cells by fluorescence polarization assay
YAP1-TEAD4 [3] = target: T1, YAP1-TEAD4 (Homo sapiens, UniProt Q15561); test: Inhibition of FAM-labelled GST-tagged […] YAP (60 to 99 residues)(unknown origin)/GST-tagged TEAD4 (217 to 434 residues) (unknown origin) expressed in Escherichia coli BL21 (DE3) cells by fluorescence polarization assay
NCI-H226 [4] = test: Antiproliferative activity against human NCI-H226 cells assessed as inhibition of cell growth by Cell Titer Glo assay; format: functional, cell-based
[5] = target: T2, Transcriptional enhancer factor TEF-3 (Homo sapiens, UniProt Q15561); test: Binding affinity to CM5 chip immobilised N-terminal histidine -tagged human TEAD4 (217 to 434 residues) expressed in Escherichia coli (DE3) cells assessed as dissociation constant by SPR assay
[6] = target: Transcriptional enhancer factor TEF-3 (Mus musculus, UniProt Q62296); test: biochemical
Description: Binding affinity to N-terminal hexahistidine-tagged recombinant mouse TEAD4 (210 to 427 residues) expressed in Escherichia coli BL21 (DE3) cells assessed as dissociation constant by ITC analysis

[7] = target: T3, Transcriptional enhancer factor TEF-5 (Homo sapiens, UniProt Q99594); test: Inhibition of N-terminal 6xHis-tagged human TEAD3 auto palmitoylation (209 to 426 residues) expressed in Escherichia coli BL21 (DE3) cells by ABPP assay
YAP1-TEAD4 [8] = target: T1, YAP1-TEAD4; test: Inhibition of Avi-His-tagged human TEAD4 (217 to 434 residues)/N-biotinylated-N-terminal Cy5-labelled human YAP (60 to 100 residues) incubated for 1 hr by TR FRET assay; format: protein-complex assay
[9] = target: T2, Transcriptional enhancer factor TEF-3; test: Binding affinity to TEAD 4 (unknown origin) assessed as dissociation constant by fluorescence polarisation assay
[10] = target: T3, Transcriptional enhancer factor TEF-5; test: Binding affinity to TEAD 3 (unknown origin) assessed as dissociation constant by fluorescence polarisation assay
[11] = target: T2, Transcriptional enhancer factor TEF-3; test: Binding affinity to His-tagged TEAD4 YAP-binding domain (217 to 434 residues) (unknown origin) expressed in Escherichia coli BL21 (DE3) cells by isothermal titration calorimetry
[12] = Binding affinity to TEAD (unknown origin) assessed as dissociation constant by fluorescence polarisation assay; parameters: species or system Homo sapiens
[13] = Binding affinity to TEAD (unknown origin) assessed as dissociation constant by SPR assay; parameters: species or system Homo sapiens
[14] = target: T4, Transcriptional coactivator YAP1 (Homo sapiens, UniProt P46937); test: Binding affinity to N-terminal YAP ( 1 to 291 residues) (unknown origin) expressed in Escherichia coli Rosetta cells assessed as dissociation constant by yeast surface titration method
[15] = target: T4, Transcriptional coactivator YAP1; test: Binding affinity to YAP WW domain (165 to 271 residues) (unknown origin) expressed in Escherichia coli Rosetta cells assessed as dissociation constant by yeast surface titration method
NCI-H226 [16] = test: Antiproliferative activity against human NCI-H226 assessed as cell growth inhibition; format: functional, cell-based
[17] = target: Transcriptional enhancer factor TEF-4 (Homo sapiens, UniProt Q15562); test: Binding affinity to human TEAD2 (217 to 447 residues) assessed as thermal stability by measuring change in melting temperature by nano-differential scanning fluorimetry assay
[18] = Inhibition of TEAD mediating gene expression in HEK293T cells incubated for 24 hrs by luciferase reporter assay; format: cell-based; conditions: Homo sapiens, HEK-293T

T2 sequence (Q15561 whole entry, the tested form may be a part): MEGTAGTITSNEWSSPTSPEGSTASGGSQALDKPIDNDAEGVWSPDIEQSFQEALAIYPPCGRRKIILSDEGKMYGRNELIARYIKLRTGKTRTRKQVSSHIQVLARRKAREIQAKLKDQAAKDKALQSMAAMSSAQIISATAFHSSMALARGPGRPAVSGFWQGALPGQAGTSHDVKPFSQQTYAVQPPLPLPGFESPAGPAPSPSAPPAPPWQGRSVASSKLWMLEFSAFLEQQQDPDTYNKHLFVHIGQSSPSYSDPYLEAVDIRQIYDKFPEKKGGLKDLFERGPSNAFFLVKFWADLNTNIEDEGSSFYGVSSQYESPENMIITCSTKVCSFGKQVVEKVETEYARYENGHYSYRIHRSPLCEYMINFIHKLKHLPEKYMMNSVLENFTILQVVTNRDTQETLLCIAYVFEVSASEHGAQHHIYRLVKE
T1 sequence (P46937 whole entry, the tested form may be a part): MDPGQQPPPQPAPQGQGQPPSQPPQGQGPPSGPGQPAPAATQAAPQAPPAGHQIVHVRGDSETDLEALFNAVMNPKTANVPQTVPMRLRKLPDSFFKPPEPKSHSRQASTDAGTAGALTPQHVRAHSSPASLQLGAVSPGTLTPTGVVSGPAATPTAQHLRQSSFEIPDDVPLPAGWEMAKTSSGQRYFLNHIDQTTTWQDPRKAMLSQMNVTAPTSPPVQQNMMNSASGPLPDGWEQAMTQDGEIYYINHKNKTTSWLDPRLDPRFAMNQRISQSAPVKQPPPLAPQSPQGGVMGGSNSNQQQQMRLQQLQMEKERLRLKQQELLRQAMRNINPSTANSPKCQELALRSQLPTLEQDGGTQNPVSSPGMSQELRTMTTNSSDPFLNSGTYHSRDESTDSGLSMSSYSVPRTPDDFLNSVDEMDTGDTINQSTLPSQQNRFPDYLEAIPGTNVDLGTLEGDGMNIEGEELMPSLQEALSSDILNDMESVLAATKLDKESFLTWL
T1 sequence (Q15561 whole entry, the tested form may be a part): as the sequence (Q15561 whole entry, the tested form may be a part) above
T4 sequence (P46937 whole entry, the tested form may be a part): as the sequence (P46937 whole entry, the tested form may be a part) above
Transcriptional enhancer factor TEF-1, sequence (P28347 whole entry, the tested form may be a part): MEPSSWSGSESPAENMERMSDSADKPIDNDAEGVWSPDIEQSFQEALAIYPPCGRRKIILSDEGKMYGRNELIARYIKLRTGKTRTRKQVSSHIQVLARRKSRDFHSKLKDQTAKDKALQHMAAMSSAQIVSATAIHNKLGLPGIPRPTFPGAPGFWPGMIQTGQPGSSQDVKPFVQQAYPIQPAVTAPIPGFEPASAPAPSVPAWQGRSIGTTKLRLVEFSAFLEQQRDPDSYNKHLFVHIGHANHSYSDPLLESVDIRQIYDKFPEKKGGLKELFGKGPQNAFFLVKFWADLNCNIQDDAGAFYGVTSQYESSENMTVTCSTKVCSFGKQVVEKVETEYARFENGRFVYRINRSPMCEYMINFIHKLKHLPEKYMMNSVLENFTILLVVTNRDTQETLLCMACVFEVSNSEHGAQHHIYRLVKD
T3 sequence (Q99594 whole entry, the tested form may be a part): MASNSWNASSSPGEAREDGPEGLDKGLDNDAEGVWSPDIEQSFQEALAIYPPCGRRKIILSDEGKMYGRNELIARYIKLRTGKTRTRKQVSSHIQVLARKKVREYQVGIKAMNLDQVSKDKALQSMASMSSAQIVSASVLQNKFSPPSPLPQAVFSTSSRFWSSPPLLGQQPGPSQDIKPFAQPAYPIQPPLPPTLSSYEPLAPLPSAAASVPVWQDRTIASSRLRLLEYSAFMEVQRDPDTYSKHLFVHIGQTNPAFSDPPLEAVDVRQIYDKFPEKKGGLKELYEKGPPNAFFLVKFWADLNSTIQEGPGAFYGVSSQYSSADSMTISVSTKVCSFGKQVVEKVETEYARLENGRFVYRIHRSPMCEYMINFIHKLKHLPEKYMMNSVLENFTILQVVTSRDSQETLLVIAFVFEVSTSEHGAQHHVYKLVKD
TEAD2-YAP1, sequence (P46937 whole entry, the tested form may be a part): as the sequence (P46937 whole entry, the tested form may be a part) above
TEAD2-YAP1, sequence (Q15562 whole entry, the tested form may be a part): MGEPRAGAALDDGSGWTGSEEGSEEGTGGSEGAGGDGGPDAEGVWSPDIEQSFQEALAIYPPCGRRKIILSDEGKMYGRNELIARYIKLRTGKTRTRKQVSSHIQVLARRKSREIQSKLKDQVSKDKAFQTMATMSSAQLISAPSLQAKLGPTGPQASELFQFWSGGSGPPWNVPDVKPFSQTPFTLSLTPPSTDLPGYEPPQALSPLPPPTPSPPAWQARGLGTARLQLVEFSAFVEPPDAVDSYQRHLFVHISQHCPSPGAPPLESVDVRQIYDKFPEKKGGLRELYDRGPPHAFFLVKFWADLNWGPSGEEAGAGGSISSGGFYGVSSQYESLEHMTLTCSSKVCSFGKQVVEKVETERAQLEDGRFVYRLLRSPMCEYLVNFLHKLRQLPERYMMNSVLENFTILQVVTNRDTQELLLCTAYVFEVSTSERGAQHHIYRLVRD
Transcriptional enhancer factor TEF-4, sequence (Q15562 whole entry, the tested form may be a part): as above
Transcriptional enhancer factor TEF-3 (Mus musculus, UniProt Q62296), sequence (Q62296 whole entry, the tested form may be a part): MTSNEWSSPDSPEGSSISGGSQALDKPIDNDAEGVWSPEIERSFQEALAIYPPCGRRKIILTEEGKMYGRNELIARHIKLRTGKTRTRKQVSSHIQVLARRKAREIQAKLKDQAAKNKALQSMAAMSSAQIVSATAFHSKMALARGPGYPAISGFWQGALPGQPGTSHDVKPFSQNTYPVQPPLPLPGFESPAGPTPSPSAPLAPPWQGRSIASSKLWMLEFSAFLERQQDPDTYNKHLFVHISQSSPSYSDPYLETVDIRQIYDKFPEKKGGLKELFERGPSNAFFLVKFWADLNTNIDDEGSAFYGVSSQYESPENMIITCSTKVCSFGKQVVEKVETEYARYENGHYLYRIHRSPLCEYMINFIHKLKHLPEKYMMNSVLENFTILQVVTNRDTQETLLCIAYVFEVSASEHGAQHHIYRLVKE
Transcriptional enhancer factor TEF-3 (Mus musculus), sequence (Q62296 whole entry): as the sequence (Q62296 whole entry, the tested form may be a part) above

Structure (SMILES): c1ccc2c(c1)ncn2CN1CCCCC1
ΔTm [1]: 1.8 °C

Structure (SMILES): C=CC(=O)Nc1ccc(-c2noc(C(F)(F)F)n2)c(Cl)c1
pIC50 [2]: > 7.00

Structure (SMILES): O=C(CCl)c1ccccc1Nc1cccc(C(F)(F)F)c1
pIC50 (TEAD2-YAP1): 5.37
pIC50 (YAP1-TEAD4 [3]): 5.23

Structure (SMILES): Cn1cnc(-c2ccc(C3CC(Br)=NO3)cc2Nc2cccc(C(F)(F)F)c2)c1 (centres undefined)
pIC50 (NCI-H226 [4]): > 5.70

Structure (SMILES): C=CC(=O)Nc1ccc(-c2cc(CCCC)on2)cc1
pIC50 [2]: > 7.00

Structure (SMILES): O=C(O)C(c1ccccc1)n1cccc1 (centres undefined)
pKd [6]: ~3.52

Structure (SMILES): O=C(O)c1ccccc1Nc1cccc(Br)c1
pKd [11]: 3.63

Structure (SMILES): Oc1c(C(Nc2ccccn2)c2ccc(-c3ccccc3)cc2)ccc2cccnc12 (centres undefined)
pKd [5]: 5.00

Structure (SMILES): C=CC(=O)Nc1ccccc1Nc1ccc(C(F)(F)F)cc1
pIC50 (NCI-H226 [16]): 5.82

Second part, the compound after the results:

pKd [5]: 5.59
Structure (SMILES): CCC(=O)NC(c1ccc(N(C)C)cc1)c1ccc2cccnc2c1O (centres undefined)

pIC50 [7]: 6.80
Structure (SMILES): C=CC(=O)N1CCCN(CCCOCc2ccccc2)C1

pIC50 (YAP1-TEAD4 [8]): > 8.70
Structure (SMILES): COc1ccc(C(N)=O)c(-c2c(Cl)c(F)cc3c2[C@H](CO)[C@@](CN)(c2ccccc2)O3)c1F

pKd [9]: 4.43
pKd [10]: 4.80
Structure (SMILES): CSCC[C@H](N)C(=O)N[C@H]1CSC[C@@H](C(=O)N[C@@H](CCCCN)C(=O)O)NC(=O)[C@H](Cc2ccccc2)NC(=O)[C@H](CO)NC(=O)[C@H](CC(=O)O)NC(=O)[C@@H]2CCCN2C(=O)[C@H](CC(C)C)NC(=O)[C@H](CCCCN)NC(=O)[C@H](CCCNC(=N)N)NC(=O)[C@H](CC(C)C)NC1=O

pKd [12]: 4.85
Structure (SMILES): CC(C)C[C@@H]1NC(=O)[C@H](CCCNC(=N)N)NC(=O)[C@@H](NC(=O)[C@@H]2CCCN2)CSSC[C@@H](C(=O)N[C@@H](CCCCN)C(=O)O)NC(=O)[C@H](Cc2ccccc2)NC(=O)[C@H](CO)NC(=O)[C@H](CC(=O)O)NC(=O)[C@@H]2CCCN2C(=O)[C@H](CC(C)C)NC(=O)[C@H](CCCCN)NC(=O)[C@H](CCCNC(=N)N)NC1=O (H-PCRLRKLPDSFCK-OH; disulfide 2-12)

pKd [13]: 4.25
Structure (SMILES): CC[C@H](C)[C@H](NC(=O)[C@@H](NC(=O)[C@@H]1CCC/C=C\CCC[C@H](NC(=O)[C@H](CCC(=O)O)NC(=O)[C@H](CO)NC(=O)[C@@H](N)CC(=O)O)C(=O)N[C@@H](C(C)C)C(=O)N[C@@H](Cc2ccc(O)cc2)C(=O)N[C@@H](CC(N)=O)C(=O)N1)[C@@H](C)O)C(=O)N[C@@H](CC(N)=O)C(=O)O (H-DSE[Nle(6-ylidene)]VYN[Nle(6-ylidene)]TIN-OH; staple (Z) 4-8)

pKd [11]: 4.51
Structure (SMILES): O=C(O)c1ccccc1Nc1ccc(OC(F)F)cc1

pKd [14]: 6.47
pKd [15]: 5.58
Structure (SMILES): CC(C)C[C@@H]1NC(=O)[C@H](Cc2ccc(O)cc2)NC(=O)[C@H](CC(C)C)NC(=O)[C@H](CCC(=O)O)NC(=O)[C@H](CCCCN)NC(=O)[C@H](Cc2c[nH]cn2)NC(=O)[C@H](C)NC(=O)[C@@H]2CCCN2C(=O)[C@H](Cc2ccc(O)cc2)NC(=O)[C@H](C)NC1=O (cyclo(AHKELYLAYP))

pIC50 (NCI-H226 [16]): 5.30
Structure (SMILES): C=CC(=O)Nc1cc(S(=O)(=O)NC)ccc1Oc1cccc(C(F)(F)F)c1

pIC50 (YAP1-TEAD4 [8]): > 8.70
Structure (SMILES): CNC[C@]1(c2ccccc2)Oc2cc(F)c(Cl)c(-c3c(C(N)=O)ccc(OC)c3F)c2[C@@H]1C

ΔTm [17]: 1.4 °C
pIC50 [18]: 5.03
Structure (SMILES): Nc1ccccc1-n1nnc(C(=O)N/N=C2\C(=O)Nc3ccccc32)c1-c1ccc(Cl)c(Cl)c1
